Measurements from patent publication US7544690B2, “MCH receptor antagonists” (Taisho Pharmaceutical Co., Ltd., priority 2001, dated 2009).
Where a name gives a salt, the structure may show the parent alone.

Target: T1, non-endogenous version of the MCH receptor (MCH-IC3-SST2) (Homo sapiens, UniProt Q99705, A240I/A242V/I247R/L249K/M235V/P241R/Q244S/R234K/R245S/R248K/R250S/R253K/S243G/S246K/T236K/T251E/V239G)
T1 construct: creating a MCH-IC3-SST2 mutation (see); expressed in transfected cells; cultured with 0.5 mg/ml G418, so I infer a stably transfected line
Test: FLIPR/FDSS6000 functional assay: intracellular Ca2+ changes evoked by MCH
Format: cell-based
Settings: antagonist activity; 50 nM of MCH; transient changes in [Ca2+]i monitored by FLIPR or FDSS
Text: Subsequently, a functional based assay was used to confirm the lead hits, referred to as FLIPR™ (the Fluorometric Imaging Plate Reader) and FDSS6000™ (Functional Drug Screening System). This assay utilized a non-endogenous version of the MCH receptor, which was created by swapping the third intracellular loop of the MCH receptor with that of the SST2 receptor (see Example 2(B)(2) of patent application Ser. No. 09/826,509).
The FLIPR and FDSS assays are able to detect intracellular Ca^2+ concentration in cells, which can be utilized to assess receptor activation and determine whether a candidate compound is an, for example, antagonist, inverse agonist or agonist to a Gq-coupled receptor. The concentration of free Ca^2+ in the cytosol of any cell is extremely low, whereas its concentration in the extracellular fluid and endoplasmic reticulum (ER) is very high. Thus, there is a large gradient tending to drive Ca^2+ into the cytosol across both the plasma membrane and ER. […]
To confirm the lead hits identified using the [^35S]GTPγS assay, Fluorometric Imaging Plate Reader system was used to allow for rapid, kinetic measurements of intracellular fluorescence in 96 well microplates (or 384 well microplates). Simultaneous measurements of fluorescence in all wells can be made by FLIPR or FDSS6000™, every second with high sensitivity and precision. […]

T1 sequence (Q99705 1-353 with the stated changes): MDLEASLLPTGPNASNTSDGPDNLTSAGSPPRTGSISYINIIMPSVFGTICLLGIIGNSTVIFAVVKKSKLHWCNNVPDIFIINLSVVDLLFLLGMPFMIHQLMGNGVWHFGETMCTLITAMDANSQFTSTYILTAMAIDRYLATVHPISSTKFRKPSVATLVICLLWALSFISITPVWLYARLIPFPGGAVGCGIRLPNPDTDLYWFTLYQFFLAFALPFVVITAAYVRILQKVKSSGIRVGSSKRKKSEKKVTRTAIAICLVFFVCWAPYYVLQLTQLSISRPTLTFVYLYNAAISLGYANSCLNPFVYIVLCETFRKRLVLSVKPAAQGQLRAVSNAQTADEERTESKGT

| Compound | IC50 [nM] |
| --- | --- |
| CN(C)c1nc(N[C@H]2CC[C@@H](CNCc3ccc(Br)cc3OC(F)(F)F)CC2)nc2ccccc12 [Example 41, cis-N^2-{4-[(4-Bromo-2-trifluoromethoxy-benzylamino)-methyl]-cyclohexyl}-N^4,N^4-dimethyl-quinazoline-2,4-diamine dihydrochloride] | 6 |
| CN(C)c1nc(N[C@H]2CC[C@@H](CNCc3ccccc3OC(F)(F)F)CC2)nc2ccccc12 [Example 42, cis-N^4,N^4-Dimethyl-N^2-{4-[(2-trifluoromethoxy-benzylamino)-methyl]-cyclohexyl}-quinazoline-2,4-diamine dihydrochloride] | 19 |
